Consider 23 molecules from patent US10344025B2, “GLS1 inhibitors for treating disease” (Board of Regents, The University of Texas System, priority 2014, dated 2019).

pEC50, pIC50: −log10 of the molar value.

For assay [1], the target named is purified recombinant human GAC (GLS1) (Homo sapiens (Human), UniProt O94925). The assay can be described thus: GLS1 Enzymatic Activity Assay (dual-coupled enzymatic assay, resorufin/Amplex UltraRed readout).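 Note: glutamate from GAC coupled via glutamate oxidase and peroxidase to resorufin, read as fluorescence (ex 530, em 590 nm) kinetically or at 20 min, four-parameter logistic IC50 fit.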 Format: biochemical.
Sequence of purified recombinant human GAC (GLS1) (O94925 other isoform, or with tags, fused parts or gaps): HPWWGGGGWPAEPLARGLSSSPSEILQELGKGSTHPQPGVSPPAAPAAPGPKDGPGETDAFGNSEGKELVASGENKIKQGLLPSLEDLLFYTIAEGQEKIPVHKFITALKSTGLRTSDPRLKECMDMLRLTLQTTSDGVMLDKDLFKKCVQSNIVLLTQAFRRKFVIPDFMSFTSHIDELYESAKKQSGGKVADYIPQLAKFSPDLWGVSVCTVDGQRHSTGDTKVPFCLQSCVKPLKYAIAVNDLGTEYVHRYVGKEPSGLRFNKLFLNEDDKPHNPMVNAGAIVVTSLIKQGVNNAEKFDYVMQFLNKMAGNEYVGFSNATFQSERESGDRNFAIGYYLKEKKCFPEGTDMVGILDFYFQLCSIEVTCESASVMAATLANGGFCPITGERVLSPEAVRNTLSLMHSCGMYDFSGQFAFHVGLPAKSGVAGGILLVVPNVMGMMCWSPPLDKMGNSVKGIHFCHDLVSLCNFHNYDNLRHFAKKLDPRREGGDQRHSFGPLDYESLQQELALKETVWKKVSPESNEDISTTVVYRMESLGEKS
The subject of another assay is A549 cells. Kind of assay: Proliferation Assay (A549 viability, Cell Titer Fluor, 72 hours). The following applies: Homo sapiens, A549, 72 h. Format: cell-based. The procedure, abridged:
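A549 cells seeded at 1000 cells/well, rested 24 h, then exposed to compound in 0.5% DMSO for 72 h at 37 °C. Viability read by Cell Titer Fluor fluorescence; IC50 from four-parameter logistic fit.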

As a reminder, the pIC50 is −log10 of the IC50, conventionally taken in molar units. A word on the pEC50: it is −log10 of the EC50, conventionally taken in molar units. A high value points to a small EC50. With `O=C(Cc1cc(Cl)ccc1F)Nc1cn(CCCCn2cc(C(=O)NCc3cccc(OC(F)(F)F)c3)nn2)nn1` [Example 385, 1-(4-{4-[2-(5-chloro-2-fluorophenyl)acetamido]-1H-1,2,3-triazol-1-yl}butyl)-N-{[3-(trifluoromethoxy)phenyl]methyl}-1H-1,2,3-triazole-4-carboxamide], in assay [1], the pIC50 is > 7.00. Also, in the assay on A549 cells, the pEC50 was > 7.00.
Consider `O=C(Cc1cc(Cl)ccc1F)Nc1cn(CCCCn2cc(C(=O)NCc3cc(OC(F)(F)F)ccc3F)nn2)nn1` [Example 386, 1-(4-{4-[2-(5-chloro-2-fluorophenyl)acetamido]-1H-1,2,3-triazol-1-yl}butyl)-N-{[2-fluoro-5-(trifluoromethoxy)phenyl]methyl}-1H-1,2,3-triazole-4-carboxamide], for which the negative logarithm of the IC50 (pIC50) in assay [1] was > 7.00. Moreover, the pEC50 in the assay on A549 cells was > 7.00.
On to `O=C(Cc1cc(Cl)ccc1F)Nc1cn(CCCCn2cc(C(=O)NCc3ncccc3F)nn2)nn1` [Example 387, 1-(4-{4-[2-(5-chloro-2-fluorophenyl)acetamido]-1H-1,2,3-triazol-1-yl}butyl)-N-[(3-fluoropyridin-2-yl)methyl]-1H-1,2,3-triazole-4-carboxamide], for which the pIC50 in assay [1] was 6.30 to 7.00. Besides, in the assay with A549 cells, the negative logarithm of the EC50 (pEC50) was 5.30 to 6.30.
The like results for `Cc1ccc(CNC(=O)c2cn(CCCCn3cc(NC(=O)Cc4cc(Cl)ccc4F)nn3)nn2)cn1` [Example 388, 1-(4-{4-[2-(5-chloro-2-fluorophenyl)acetamido]-1H-1,2,3-triazol-1-yl}butyl)-N-[(6-methylpyridin-3-yl)methyl]-1H-1,2,3-triazole-4-carboxamide] were, in that order, > 7.00 and 6.30 to 7.00.
The like results for `O=C(CN1CC(F)C1)Nc1cn(CC(F)CCn2cc(C(=O)NCc3ccccn3)nn2)nn1` (stereo not shown) [Example 389, 1-(3-fluoro-4-{4-[2-(3-fluoroazetidin-1-yl)acetamido]-1H-1,2,3-triazol-1-yl}butyl)-N-(pyridin-2-ylmethyl)-1H-1,2,3-triazole-4-carboxamide] were, in that order, 5.30 to 6.30 and < 5.30.
On the same counts, the results for `O=C(CN1CC(F)(F)C1)Nc1cn(CC(F)CCn2cc(C(=O)NCc3cc(OC(F)(F)F)ccc3F)nn2)nn1` (stereo not shown) [Example 390, 1-(4-{4-[2-(3,3-difluoroazetidin-1-yl)acetamido]-1H-1,2,3-triazol-1-yl}-3-fluorobutyl)-N-{[2-fluoro-5-(trifluoromethoxy)phenyl]methyl}-1H-1,2,3-triazole-4-carboxamide] are > 7.00 and > 7.00.
For `O=C(CN1CC(F)(F)C1)Nc1cn(CC(F)CCn2cc(C(=O)NCc3cccc(OC(F)(F)F)c3)nn2)nn1` (stereo not shown) [Example 391, 1-(4-{4-[2-(3,3-difluoroazetidin-1-yl)acetamido]-1H-1,2,3-triazol-1-yl}-3-fluorobutyl)-N-{[3-(trifluoromethoxy)phenyl]methyl}-1H-1,2,3-triazole-4-carboxamide], the negative logarithm of the IC50 (pIC50) in assay [1] is > 7.00. Besides, the pEC50 in the assay with A549 cells was 6.30 to 7.00.
Consider `O=C(CN1CC(F)(F)C1)Nc1cn(CC(F)CCn2cc(C(=O)NCc3ccccn3)nn2)nn1` (stereo not shown) [Example 392, 1-(4-{4-[2-(3,3-difluoroazetidin-1-yl)acetamido]-1H-1,2,3-triazol-1-yl}-3-fluorobutyl)-N-(pyridin-2-ylmethyl)-1H-1,2,3-triazole-4-carboxamide], for which the pIC50 in assay [1] is 5.30 to 6.30. The negative logarithm of the EC50 (pEC50) with A549 cells is < 5.30.
On the same counts, the results for `Cc1ccc(CNC(=O)c2cn(CCC(F)Cn3cc(NC(=O)CN4CC(F)(F)C4)nn3)nn2)cn1` (stereo not shown) [Example 393, 1-(4-{4-[2-(3,3-difluoroazetidin-1-yl)acetamido]-1H-1,2,3-triazol-1-yl}-3-fluorobutyl)-N-[(6-methylpyridin-3-yl)methyl]-1H-1,2,3-triazole-4-carboxamide] are 5.30 to 6.30 and 5.30 to 6.30.
The like results for `O=C(Cc1cccc(OC(F)(F)F)c1)Nc1cn(CC(F)CCn2cc(C(=O)NCc3cc(C(F)(F)F)ccn3)nn2)nn1` (stereo not shown) [Example 394] were, in that order, > 7.00 and > 7.00.
`O=C(Cc1cc(OC(F)(F)F)ccc1F)Nc1cn(CC(F)CCn2cc(C(=O)NCc3cc(C(F)(F)F)ccn3)nn2)nn1` (stereo not shown) [Example 395, 1-[3-fluoro-4-(4-{2-[2-fluoro-5-(trifluoromethoxy)phenyl]acetamido}-1H-1,2,3-triazol-1-yl)butyl]-N-{[4-(trifluoromethyl)pyridin-2-yl]methyl}-1H-1,2,3-triazole-4-carboxamide]: the negative logarithm of the IC50 (pIC50) in assay [1] is > 7.00. For the same molecule, the negative logarithm of the EC50 (pEC50) in the assay with A549 cells is > 7.00.
Consider `Cc1ccc(CNC(=O)c2cn(CC(F)CCn3cc(NC(=O)Cc4cccc(OC(F)(F)F)c4)nn3)nn2)cn1` (stereo not shown) [Example 396, 1-[2-fluoro-4-(4-{2-[3-(trifluoromethoxy)phenyl]acetamido}-1H-1,2,3-triazol-1-yl)butyl]-N-[(6-methylpyridin-3-yl)methyl]-1H-1,2,3-triazole-4-carboxamide], for which the negative logarithm of the IC50 (pIC50) in assay [1] was > 7.00. Moreover, the negative-log EC50 (pEC50) in the assay on A549 cells is > 7.00.
Consider `CNC(=O)c1cn(CC(F)CCc2nnc(NC(=O)Cc3cc(-c4cccc(OC(F)(F)F)c4)ccn3)s2)nn1` (stereo not shown) [Example 397, 1-(2-fluoro-4-(5-(2-(4-(3-(trifluoromethoxy)phenyl)pyridin-2-yl)acetamido)-1,3,4-thiadiazol-2-yl)butyl)-N-methyl-1H-1,2,3-triazole-4-carboxamide 2,2,2-trifluoroacetate], for which the negative-log IC50 (pIC50) in assay [1] was > 7.00. In addition, the negative-log EC50 (pEC50) in the assay with A549 cells is > 7.00.
In the case of `O=C(Cc1cc(OC(F)(F)F)ccc1F)Nc1cn(CCC(F)Cn2cc(C(=O)NCc3ccccn3)nn2)nn1` (stereo not shown) [Example 398, 1-[2-fluoro-4-(4-{2-[2-fluoro-5-(trifluoromethoxy)phenyl]acetamido}-1H-1,2,3-triazol-1-yl)butyl]-N-(pyridin-2-ylmethyl)-1H-1,2,3-triazole-4-carboxamide], in assay [1], the negative-log IC50 (pIC50) was > 7.00. Besides, the pEC50 in the assay on A549 cells was > 7.00.
On to `O=C(Cc1ccccn1)Nc1cn(CC(F)CCn2cc(C(=O)NCc3cc(C(F)(F)F)ccn3)nn2)nn1` (stereo not shown) [Example 399, 1-(3-fluoro-4-{4-[2-(pyridin-2-yl)acetamido]-1H-1,2,3-triazol-1-yl}butyl)-N-{[4-(trifluoromethyl)pyridin-2-yl]methyl}-1H-1,2,3-triazole-4-carboxamide], for which, in assay [1], the negative-log IC50 (pIC50) is > 7.00. Further, the negative-log EC50 (pEC50) with A549 cells is 6.30 to 7.00.
For the molecule `Cc1ccc(CC(=O)Nc2cn(CC(F)CCn3cc(C(=O)NCc4cc(C(F)(F)F)ccn4)nn3)nn2)cn1` (stereo not shown) [Example 400, 1-(3-fluoro-4-{4-[2-(6-methylpyridin-3-yl)acetamido]-1H-1,2,3-triazol-1-yl}butyl)-N-{[4-(trifluoromethyl)pyridin-2-yl]methyl}-1H-1,2,3-triazole-4-carboxamide], the negative-log IC50 (pIC50) in assay [1] is > 7.00. Further, the pEC50 with A549 cells was 6.30 to 7.00.
With `O=C(CN1CC(F)C1)Nc1cn(CC(F)CCn2cc(C(=O)NCc3cc(C(F)(F)F)ccn3)nn2)nn1` (stereo not shown) [Example 401, 1-(3-fluoro-4-{4-[2-(3-fluoroazetidin-1-yl)acetamido]-1H-1,2,3-triazol-1-yl}butyl)-N-{[4-(trifluoromethyl)pyridin-2-yl]methyl}-1H-1,2,3-triazole-4-carboxamide], the pIC50 in assay [1] was 6.30 to 7.00. In the assay with A549 cells, the pEC50 is 5.30 to 6.30.
Regarding `O=C(CN1CC(F)(F)C1)Nc1cn(CC(F)CCn2cc(C(=O)NCc3cc(C(F)(F)F)ccn3)nn2)nn1` (stereo not shown) [Example 402, 1-(4-{4-[2-(3,3-difluoroazetidin-1-yl)acetamido]-1H-1,2,3-triazol-1-yl}-3-fluorobutyl)-N-{[4-(trifluoromethyl)pyridin-2-yl]methyl}-1H-1,2,3-triazole-4-carboxamide], in assay [1], the negative logarithm of the IC50 (pIC50) was 6.30 to 7.00. For the same molecule, in the assay with A549 cells, the pEC50 is 5.30 to 6.30.
On the same counts, the results for `O=C(Cc1cccc(OC(F)(F)F)c1)Nc1cn(CCC(F)Cn2cc(C(=O)NCc3ccccn3)nn2)nn1` (stereo not shown) [Example 403, 1-[2-fluoro-4-(4-{2-[3-(trifluoromethoxy)phenyl]acetamido}-1H-1,2,3-triazol-1-yl)butyl]-N-(pyridin-2-ylmethyl)-1H-1,2,3-triazole-4-carboxamide] are > 7.00 and > 7.00.
With `O=C(Cc1cc(OC(F)(F)F)ccc1F)Nc1cn(CCC(F)Cn2cc(C(=O)NCc3cc(OC(F)(F)F)ccc3F)nn2)nn1` (stereo not shown) [Example 404, 1-[2-fluoro-4-(4-{2-[2-fluoro-5-(trifluoromethoxy)phenyl]acetamido}-1H-1,2,3-triazol-1-yl)buty]-N-{[2-fluoro-5-(trifluoromethoxy)phenyl]methyl}-1H-1,2,3-triazole-4-carboxamide], in assay [1], the negative-log IC50 (pIC50) was > 7.00. Besides, the negative logarithm of the EC50 (pEC50) in the assay with A549 cells was > 7.00.
`Cc1ccc(CC(=O)Nc2cn(CCC(F)Cn3cc(C(=O)NCc4cc(OC(F)(F)F)ccc4F)nn3)nn2)cn1` (stereo not shown) [Example 405, 1-(2-fluoro-4-{4-[2-(6-methylpyridin-3-yl)acetamido]-1H-1,2,3-triazol-1-yl}butyl)-N-{[2-fluoro-5-(trifluoromethoxy)phenyl]methyl}-1H-1,2,3-triazole-4-carboxamide]: the pIC50 in assay [1] was > 7.00. Moreover, in the assay with A549 cells, the pEC50 is > 7.00.
As to `O=C(Cc1cccc(OC(F)(F)F)c1)Nc1cn(CCC(F)Cn2cc(C(=O)NCc3ncccc3F)nn2)nn1` (stereo not shown) [Example 406, 1-[2-fluoro-4-(4-{2-[3-(trifluoromethoxy)phenyl]acetamido}-1H-1,2,3-triazol-1-yl)butyl]-N-[(3-fluoropyridin-2-yl)methyl]-1H-1,2,3-triazole-4-carboxamide], the negative logarithm of the IC50 (pIC50) in assay [1] is > 7.00. Also, the pEC50 with A549 cells was > 7.00.
As to `O=C(Cc1cccc(OC(F)(F)F)c1)Nc1cn(CCC(F)Cn2cc(C(=O)NCc3cc(C(F)(F)F)ccn3)nn2)nn1` (stereo not shown) [Example 407, 1-[2-fluoro-4-(4-{2-[3-(trifluoromethoxy)phenyl]acetamido}-1H-1,2,3-triazol-1-yl)butyl]-N-{[4-(trifluoromethyl)pyridin-2-yl]methyl}-1H-1,2,3-triazole-4-carboxamide], in assay [1], the pIC50 is > 7.00. The pEC50 in the assay on A549 cells is > 7.00.
